Measurements taken from ChEMBL document CHEMBL3507680, “University of Dundee, Gates Library screen for HepG2 cell viability”.

Test: Human HepG2 cell viability assay in 384 well format
Type: toxicity, cell-based
Design: dose 125 nL, time 70.5 hour; concentration not given beside the values
Conditions: HepG2 cells, read-out: Inhibition

With C[C@@H](NCc1cccc(Cl)c1)c1onc(-c2ccccc2)c1C(=O)O as the compound, how does the cytotoxicity at 70.5 h read?
Its cytotoxicity at 70.5 h is -3.56%.

Which cytotoxicity at 70.5 h does the source give for Cc1cccc(CNC[C@H]2Cn3ccnc3CO2)n1 here?
Its cytotoxicity at 70.5 h is -1.57%.

For CCN(CC)[C@H]1C[C@@H](Cc2cc(CO)on2)C1(C)C, which cytotoxicity at 70.5 h is on record?
The cytotoxicity at 70.5 h was -7.1%.

With CN1C(=O)CO[C@H](c2ccc(NC(=O)Cc3cccs3)cc2)[C@H]1CO as the compound, how does the cytotoxicity at 70.5 h read?
The cytotoxicity at 70.5 h was -6.23%.

For O=C(c1ccc2c(c1)OCO2)N1CCN2C(=O)NC[C@H]2C1, which cytotoxicity at 70.5 h is on record?
The cytotoxicity at 70.5 h was -7.42%.

Which cytotoxicity at 70.5 h does the source give for CC(C)(C)C(=O)NC[C@H]1Cn2c(-c3ccccc3)cnc2CO1 here?
The cytotoxicity at 70.5 h was -9.72%.

With O=C(NC[C@H]1Cn2c(-c3ccccc3)cnc2CO1)C1CCOCC1 as the compound, how does the cytotoxicity at 70.5 h read?
The cytotoxicity at 70.5 h was -9.93%.

For COCCO[C@H]1COCCN(Cc2ccc(OC)cc2)C1, which cytotoxicity at 70.5 h is on record?
Its cytotoxicity at 70.5 h is 8.32%.

With CC(C)(C)c1coc([C@@H]2COCCN2Cc2c[nH]c3ccccc23)n1 as the compound, how does the cytotoxicity at 70.5 h read?
Its cytotoxicity at 70.5 h is 1.59%.

For CC(C)(C)C(=O)N1C[C@@H](F)[C@@H](OCc2nc3ccccc3o2)C1, which cytotoxicity at 70.5 h is on record?
The cytotoxicity at 70.5 h was -3.29%.

With Cn1c(CN2CCOC[C@H]2c2nc(C(C)(C)C)co2)nc2ccccc21 as the compound, how does the cytotoxicity at 70.5 h read?
The cytotoxicity at 70.5 h was -0.449%.

For COc1ccc2c(c1)nc1n2[C@@H](CNCc2nccs2)COC1, which cytotoxicity at 70.5 h is on record?
Its cytotoxicity at 70.5 h is -13.7%.

Which cytotoxicity at 70.5 h does the source give for COc1ccc2c(c1)nc1n2[C@@H](CNCc2ccccc2)COC1 here?
The cytotoxicity at 70.5 h was 10.1%.

With F[C@@H]1CN(C2CCC2)C[C@@H]1OCc1nc2ncccc2[nH]1 as the compound, how does the cytotoxicity at 70.5 h read?
The cytotoxicity at 70.5 h was 15.4%.

With CCN(CC)CC[C@H]1CN(C(=O)NC2CCCCC2)CC[C@H]1CC(=O)O as the compound, how does the cytotoxicity at 70.5 h read?
The cytotoxicity at 70.5 h was -1.74%.

For CCN1C(=O)COC[C@@H]1[C@H](O)c1ccc(NC(=O)COC)cc1, which cytotoxicity at 70.5 h is on record?
Its cytotoxicity at 70.5 h is 11%.

With FC(F)(F)Oc1ccc(-c2c[nH]c([C@@H]3COCCN3)n2)cc1 as the compound, how does the cytotoxicity at 70.5 h read?
Its cytotoxicity at 70.5 h is -3.01%.

With CC(=O)N1C[C@@H](F)[C@@H](OCc2nc3ccc(C#N)cc3[nH]2)C1 as the compound, how does the cytotoxicity at 70.5 h read?
Its cytotoxicity at 70.5 h is -1.65%.

With COc1ccc(CNC[C@H]2COCc3nc4cccnc4n32)cn1 as the compound, how does the cytotoxicity at 70.5 h read?
Its cytotoxicity at 70.5 h is -6.49%.

For O=C(NC[C@H]1OC[C@@H](NC2CCOCC2)[C@@H]1O)Nc1ccccc1, which cytotoxicity at 70.5 h is on record?
Its cytotoxicity at 70.5 h is 14.3%.

For CN1CCN2C(=O)N(c3ccccc3)C[C@H]2C1, which cytotoxicity at 70.5 h is on record?
The cytotoxicity at 70.5 h was -0.222%.

Which cytotoxicity at 70.5 h does the source give for O=C(NC[C@H]1OC[C@@H](NC2CCOCC2)[C@@H]1O)c1cccs1 here?
The cytotoxicity at 70.5 h was -8.14%.

For CC(C)NC(=O)NC[C@H]1OC[C@@H](NCc2ccc(S(C)(=O)=O)cc2)[C@@H]1O, which cytotoxicity at 70.5 h is on record?
Its cytotoxicity at 70.5 h is -3.26%.

Which cytotoxicity at 70.5 h does the source give for COCCN1C[C@H]2CN(C(=O)NC(C)C)CCN2C1=O here?
Its cytotoxicity at 70.5 h is -3.98%.

With O=C(c1cccnc1)N1CCN2C(=O)N(Cc3ccc(F)cc3)C[C@H]2C1 as the compound, how does the cytotoxicity at 70.5 h read?
Its cytotoxicity at 70.5 h is 9.22%.

For CC(=O)N1CCOC[C@H](Oc2ccc(C(F)(F)F)cc2)C1, which cytotoxicity at 70.5 h is on record?
Its cytotoxicity at 70.5 h is 1.19%.

With CC(C)CN1CCOC[C@H](Oc2ccc(S(C)(=O)=O)cc2)C1 as the compound, how does the cytotoxicity at 70.5 h read?
The cytotoxicity at 70.5 h was 13.8%.

Which cytotoxicity at 70.5 h does the source give for Cn1ccnc1CN1C[C@H]2CN(S(=O)(=O)c3ccccc3)CCN2C1=O here?
The cytotoxicity at 70.5 h was -2.62%.

With CN1CCN2C(=O)N(C3CCOCC3)C[C@H]2C1 as the compound, how does the cytotoxicity at 70.5 h read?
Its cytotoxicity at 70.5 h is -2.12%.

For Clc1ccc(CN2CCOC[C@H](Oc3cccnc3)C2)cc1, which cytotoxicity at 70.5 h is on record?
Its cytotoxicity at 70.5 h is -2.34%.

Which cytotoxicity at 70.5 h does the source give for FC(F)(F)c1cccc(CN2CCOC[C@H](Oc3cccnc3)C2)c1 here?
The cytotoxicity at 70.5 h was -1.63%.

With CS(=O)(=O)NC[C@H]1Cn2c(-c3ccc(F)cc3)cnc2CO1 as the compound, how does the cytotoxicity at 70.5 h read?
Its cytotoxicity at 70.5 h is -3.71%.

For CS(=O)(=O)NC[C@H]1Cn2c(-c3ccc(Cl)cc3)cnc2CO1, which cytotoxicity at 70.5 h is on record?
The cytotoxicity at 70.5 h was -7.36%.

Which cytotoxicity at 70.5 h does the source give for O=C(NC[C@H]1Cn2c(-c3ccccc3)cnc2CO1)C1CC1 here?
The cytotoxicity at 70.5 h was -7.19%.

Which cytotoxicity at 70.5 h does the source give for CC(C)(C)CN[C@@H]1CO[C@H](CNC(=O)Nc2ccccc2)[C@H]1O here?
Its cytotoxicity at 70.5 h is -1.92%.

For c1cc(CN2CCOC[C@H]2c2nc(-c3ccncc3)c[nH]2)ccn1, which cytotoxicity at 70.5 h is on record?
The cytotoxicity at 70.5 h was 1.86%.

Which cytotoxicity at 70.5 h does the source give for CC(C)(C)c1c[nH]c([C@@H]2COCCN2C2CCCCC2)n1 here?
The cytotoxicity at 70.5 h was -0.143%.

Which cytotoxicity at 70.5 h does the source give for c1cncc(-c2c[nH]c([C@@H]3COCCN3Cc3ccncc3)n2)c1 here?
The cytotoxicity at 70.5 h was 1.27%.

Which cytotoxicity at 70.5 h does the source give for CC(=O)N1CCC(N2CCOC[C@H]2c2nc(-c3ccncc3)c[nH]2)CC1 here?
Its cytotoxicity at 70.5 h is -0.136%.

Which cytotoxicity at 70.5 h does the source give for O=C1CCC2(CCCN(C(=O)c3cccs3)C2)N1 (stereo unspecified) here?
The cytotoxicity at 70.5 h was 35.1%.

For CC(=O)N1CCC2(CC1)CN(C(=O)c1ccc3c(c1)OCO3)C2, which cytotoxicity at 70.5 h is on record?
The cytotoxicity at 70.5 h was 5.17%.

With CNC(=O)CN1C(=O)CCC12CCCN(Cc1ccccc1F)C2 (stereo unspecified) as the compound, how does the cytotoxicity at 70.5 h read?
Its cytotoxicity at 70.5 h is 6.16%.

Which cytotoxicity at 70.5 h does the source give for CNC(=O)CN1C(=O)CCC12CCCN(Cc1ccccn1)C2 (stereo unspecified) here?
The cytotoxicity at 70.5 h was 2.52%.

With O=C(N[C@]12CC1CN(C(=O)c1ccco1)C2)c1ccoc1 (stereo partly specified) as the compound, how does the cytotoxicity at 70.5 h read?
The cytotoxicity at 70.5 h was -7.38%.

For CC(C)CN1C[C@@H]2C(=O)NC3(CCN(C(=O)c4cccnc4)CC3)[C@@H]2C1, which cytotoxicity at 70.5 h is on record?
The cytotoxicity at 70.5 h was -9.79%.

For O=S(=O)(c1ccc(Cl)cc1)N1C[C@@H]2CCN[C@@H]2C1, which cytotoxicity at 70.5 h is on record?
The cytotoxicity at 70.5 h was -6.26%.

Which cytotoxicity at 70.5 h does the source give for CNC(=O)CN1C(=O)CCC12CCCN(CCc1ccccc1)C2 (stereo unspecified) here?
Its cytotoxicity at 70.5 h is 27.8%.

Which cytotoxicity at 70.5 h does the source give for O=C(CC1CCCC1)N1C[C@@H]2C[C@H]1CN2 here?
Its cytotoxicity at 70.5 h is -3.6%.

Which cytotoxicity at 70.5 h does the source give for COCCN1C[C@@H]2CN(S(=O)(=O)c3cccs3)C[C@@H]2C1=O here?
Its cytotoxicity at 70.5 h is -8.88%.

With CC(C)CN1C[C@@H]2CN(S(=O)(=O)c3cccs3)C[C@@H]2C1=O as the compound, how does the cytotoxicity at 70.5 h read?
The cytotoxicity at 70.5 h was -10.3%.

With O=C(c1cc(F)cc(F)c1)N1C[C@H]2CNC[C@H]2C1 as the compound, how does the cytotoxicity at 70.5 h read?
Its cytotoxicity at 70.5 h is -13.4%.

Which cytotoxicity at 70.5 h does the source give for CCN1C(=O)CC[C@@H]2[C@H]1CCN2S(=O)(=O)c1cccs1 here?
The cytotoxicity at 70.5 h was -4.53%.

With Cc1noc([C@@H](C)NCc2ccc(F)cc2)c1C(=O)O as the compound, how does the cytotoxicity at 70.5 h read?
Its cytotoxicity at 70.5 h is -1.34%.

With CC(C)NC(=O)NC[C@@]1(COc2cnccn2)C[C@@H](O)[C@@H](O)C1 as the compound, how does the cytotoxicity at 70.5 h read?
The cytotoxicity at 70.5 h was 3.08%.

For C[C@@H](NC(=O)c1cnccn1)c1c(-c2ccc(Cl)cc2)noc1C(=O)O, which cytotoxicity at 70.5 h is on record?
The cytotoxicity at 70.5 h was -5.53%.

For O=C(NCC1CCC2(CCNCC2)O1)C1CC1 (stereo unspecified), which cytotoxicity at 70.5 h is on record?
The cytotoxicity at 70.5 h was 2.18%.

With O=C(NCC1CCCCC1)N1C[C@@H]2C[C@H]1CN2 as the compound, how does the cytotoxicity at 70.5 h read?
The cytotoxicity at 70.5 h was -7.03%.

For CN(Cc1ccco1)C1CCC12CCN(C(=O)C1CCOCC1)CC2 (stereo unspecified), which cytotoxicity at 70.5 h is on record?
Its cytotoxicity at 70.5 h is -3.65%.

Which cytotoxicity at 70.5 h does the source give for CN(Cc1ccco1)C1CCC12CCN(C(=O)N1CCCC1)CC2 (stereo unspecified) here?
The cytotoxicity at 70.5 h was -7.66%.

Which cytotoxicity at 70.5 h does the source give for COCc1nn(CC2CC2)c2c1CN(Cc1ccco1)CC2 here?
Its cytotoxicity at 70.5 h is -8.39%.

For O=C1CC2(CNCCN(C(=O)Nc3ccccc3)C2)CN1 (stereo unspecified), which cytotoxicity at 70.5 h is on record?
Its cytotoxicity at 70.5 h is -9.89%.

With Cc1ccc(CN2CCCC3(CCC(=O)N3)CC2)s1 (stereo unspecified) as the compound, how does the cytotoxicity at 70.5 h read?
The cytotoxicity at 70.5 h was -7.87%.

With CN1C(=O)C2(CCN(Cc3nccn3C)CC2)c2ccccc21 as the compound, how does the cytotoxicity at 70.5 h read?
Its cytotoxicity at 70.5 h is -4.36%.

For O=C(c1ccco1)N1C[C@@H]2CN(c3ccccn3)C[C@@H]2C1, which cytotoxicity at 70.5 h is on record?
The cytotoxicity at 70.5 h was -0.814%.

With CCN1CCC12CCN(C(=O)c1cc(C)on1)C2 (stereo unspecified) as the compound, how does the cytotoxicity at 70.5 h read?
The cytotoxicity at 70.5 h was -2.64%.

With Cc1cc(C(=O)N2CCC3(CCN3Cc3ccc(F)cc3)C2)no1 (stereo unspecified) as the compound, how does the cytotoxicity at 70.5 h read?
Its cytotoxicity at 70.5 h is -3.92%.

For O=C1CCC2(CCCN(Cc3ccccc3F)C2)N1CC1CC1 (stereo unspecified), which cytotoxicity at 70.5 h is on record?
Its cytotoxicity at 70.5 h is -2.34%.

With O=S(=O)(c1cccs1)N1CC[C@H]2[C@H]1CCN2c1ncccn1 as the compound, how does the cytotoxicity at 70.5 h read?
The cytotoxicity at 70.5 h was -4.67%.

With CCN1CC[C@@]2(C(=O)N3CCOCC3)CCN(C(=O)CC(C)C)CC[C@@H]12 as the compound, how does the cytotoxicity at 70.5 h read?
Its cytotoxicity at 70.5 h is -2.66%.

Which cytotoxicity at 70.5 h does the source give for CC(C)CN1CC[C@@H]2[C@@H]1CCN2S(=O)(=O)c1cccs1 here?
The cytotoxicity at 70.5 h was -18%.

Which cytotoxicity at 70.5 h does the source give for CCN1C(=O)C(c2ccccc2)CC12CCN(CCO)CC2 (stereo unspecified) here?
The cytotoxicity at 70.5 h was -13.9%.

Which cytotoxicity at 70.5 h does the source give for COCc1nn(C)c2c1CCN(Cc1cnn(C)c1)C2 here?
Its cytotoxicity at 70.5 h is -5.93%.

Which cytotoxicity at 70.5 h does the source give for CCN1CC[C@@]2(C(=O)N3CCCC3)CCN(S(C)(=O)=O)CC[C@@H]12 here?
Its cytotoxicity at 70.5 h is -8.95%.

For CCN1CC[C@@]2(C(=O)N(C)C)CCN(C(=O)Cc3ccccc3)CC[C@@H]12, which cytotoxicity at 70.5 h is on record?
The cytotoxicity at 70.5 h was -8.1%.

Which cytotoxicity at 70.5 h does the source give for CC(C)C(=O)NC1COC2(CCN(Cc3cccnc3)CC2)C1 (stereo unspecified) here?
Its cytotoxicity at 70.5 h is -10.3%.

With CCN1C(=O)C(c2ccccc2)CC12CCN(Cc1cccnc1)CC2 (stereo unspecified) as the compound, how does the cytotoxicity at 70.5 h read?
The cytotoxicity at 70.5 h was -7.6%.
